The test system of series [1] is HBV. Put plainly: anti-HBV activity, HepG2.2.15 stable transfected cell line, HBV DNA from secreted virions by realtime PCR. The class given is cell-based. Conditions: Hepatitis B virus, 144 h, HepG2.2.15 cells, 6 days of treatment.
Series [2] has as its system HBV. Put plainly: anti HBV activity, HepG2.117 inducibly HBV producing cell line (Tet-off), intracellular HBV DNA by realtime PCR. It counts as cell-based. The settings on record: Hepatitis B virus, 72 h, HepG2.117 cells, 3 days of treatment.
The nature of series [3]: Cytotoxicity, HepG2 cells, Resazurin assay. The settings on record: human. It counts as cell-based. For orientation: Resazurin is reduced to fluorescent resorufin, in cell work by metabolically active cells.
Series [4] in a line: ATP based toxicity assay (ATPlite), HepG2 cell line. The settings on record: human, HepG2 cells, ATPlite (ATP levels). An outline of the steps:
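HepG2 cells exposed to compound, then ATPlite reagent added at 1 volume. Cellular ATP read by luminescence as a viability measure.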
Background: In ATP-based viability assays light output follows the ATP content of the culture.

Drawing on patent publication US11078193B2 (priority 2014, dated 2021), this text covers EC50, CC50 and melting point for one compound.

SMILES strings stand for the structures.

A word on the EC50: it is the midpoint of the concentration-response curve. High values mean a less potent agent, low ones a more potent agent. Broadly, the CC50 is the concentration at which the toxic effect on the cells reaches its halfway point. A word on the melting point: it is the temperature of the solid-liquid transition. On to `C[C@@H](NS(=O)(=O)c1cn(C)c(C(=O)Nc2ccnc(Cl)c2)c1Cl)C(F)(F)F` [Compound 12, 3-Chloro-N-(2-chloropyridin-4-yl)-1-methyl-4-{[(1R)-2,2,2-trifluoro-1-methylethyl]sulfamoyl}-1H-pyrrole-2-carboxamide], for which the melting point was 214.8 °C. In the series with HBV [1], this compound yielded an EC50 of 10 nM. Besides, the concentration giving a half-maximal response (EC50) in the series with HBV [2] turned out to be 20 nM. In series [3], this compound had a CC50 at 4 days greater than 25000 nM. The CC50 at 4 days in series [4] was greater than 25000 nM.
